Here are results for six molecules from patent US20260062387A1, “SALT-INDUCIBLE KINASE INHIBITOR COMPOUND AND PHARMACEUTICAL COMPOSITION INCLUDING THE SAME” (MITSUBISHI TANABE PHARMA CORPORATION, priority 2023, published 2026).

In general, IC50 refers to the midpoint of a concentration-inhibition curve. A higher IC50 goes with lower potency.

One test addresses GST-tagged SIK2 (Homo sapiens (Human), UniProt Q9H0K1). Briefly: SIK2 inhibition test (ADP-Glo Max Assay). Conditions: enzyme 3 nM, AMARA Peptide 200 μM, ATP 1 mM, 2 hours room temperature. The class given is biochemical. In a few lines:
(§1)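 ADP formed was detected by luciferase luminescence after a 2 h room-temperature reaction with 1 mM ATP, 5 mM MgCl2 and AMARA peptide at 200 μM (SIK1, SIK2) or 100 μM (SIK3). Final GST-enzyme levels were 20 nM SIK1, 3 nM SIK2 and 100 nM SIK3. IC50 came from 16-point concentration-response data.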
For orientation: ADP-Glo first removes unused ATP, then detects ADP through luciferase.

For the next test, the target named is GST-tagged SIK3 (Homo sapiens (Human), UniProt Q9Y2K2). Briefly: SIK3 inhibition test (ADP-Glo Max Assay). The format is biochemical. Conditions: enzyme 100 nM, AMARA Peptide 100 μM, ATP 1 mM, 2 hours room temperature. The method in brief:
as §1

For test [1], the system named is TNF-α in serum of LPS-stimulated mice. Description: TNF-α increase inhibition test in LPS-stimulated mouse serums. Conditions: 1 mg/kg oral, LPS intraperitoneal 30 minutes later, serum 1.5 hours later. The class given is in vivo, BALB/c mice. The procedure: (§2) The compound of Example 106 was used as the test compound.
Six-week old male BALB/c mice were orally administered with a suspension (10 mL/kg) of a concentration of the test compound in 0.5% methylcellulose (MC) solution. 30 Minutes later, […] of LPS (Sigma Aldrich) was intraperitoneally administered. […] The amount of TNF-α production in the serum was measured using CBA […] TNF Flex Set (BD Bioscience).
The inhibitory ratio (%) was calculated by: % Inhibition={1−(amount of TNF-α production in sample−average amount of TNF-α production without stimulus (MC administered, not LPS-stimulated)/(average amount of TNF-α production in control (MC administered, LPS-stimulated)−average amount of TNF-α production without stimulus (MC administered, not LPS-stimulated))}×100. The results are described in Table 4 below.

The target of the next test is GST-tagged SIK1 (Homo sapiens (Human), UniProt P57059). Briefly: SIK1 inhibition test (ADP-Glo Max Assay). The format is biochemical. Conditions: enzyme 20 nM, AMARA Peptide 200 μM, ATP 1 mM, 2 hours room temperature. In a few lines:
as §1

In test [2] the test system is TNF-α production in LPS-stimulated human monocytes. Briefly: TNF-α production inhibition test in LPS-stimulated human monocytes. The class given is cell-based. The conditions noted are these: Monocyte, LPS 100 ng/mL, 4 hours. The protocol:
as §2
Cryopreserved mononuclear cells derived from human peripheral blood (LONZA K. K.) were thawed at 37° C., and human monocytes were isolated using CD14 Microfleads (Miltenyi Biotec). The isolated human monocytes were mixed with a culture medium (RPMI 1640, 10% FBS, penicillin, streptomycin), and a DMSO solution of a concentration of the test compound was added. The mixture was incubated at 37° C. for 30 minutes. After the incubation, lipopolysaccharide (LPS; Sigma Aldrich) was added so that the final concentration would be 100 ng/mL. The mixture was incubated at 37° C. for 4 hours. After the incubation, the supernatant was recovered and cryopreserved at −80° C. The cryopreserved supernatant was thawed and the amount of TNF-α production in the supernatant was measured using CBA Human TNF Flex Set (BD Bioscience).
Inhibitory ratio (%) was calculated by: % Inhibition={1−(amount of TNF-α production in sample−amount of TNF-α production without stimulus (DMSO added, not LPS-stimulated))/(amount of TNF-α production in control (DMSO added, LPS-stimulated)−amount of TNF-α production without stimulus (DMSO added, not LPS-stimulated))}×100. The inhibitory concentration IC50was calculated based on 4 data values obtained in the concentration response test.

Marks after values point to notes of the source that are not given here.

Chain of GST-tagged SIK1 (P57059 whole entry): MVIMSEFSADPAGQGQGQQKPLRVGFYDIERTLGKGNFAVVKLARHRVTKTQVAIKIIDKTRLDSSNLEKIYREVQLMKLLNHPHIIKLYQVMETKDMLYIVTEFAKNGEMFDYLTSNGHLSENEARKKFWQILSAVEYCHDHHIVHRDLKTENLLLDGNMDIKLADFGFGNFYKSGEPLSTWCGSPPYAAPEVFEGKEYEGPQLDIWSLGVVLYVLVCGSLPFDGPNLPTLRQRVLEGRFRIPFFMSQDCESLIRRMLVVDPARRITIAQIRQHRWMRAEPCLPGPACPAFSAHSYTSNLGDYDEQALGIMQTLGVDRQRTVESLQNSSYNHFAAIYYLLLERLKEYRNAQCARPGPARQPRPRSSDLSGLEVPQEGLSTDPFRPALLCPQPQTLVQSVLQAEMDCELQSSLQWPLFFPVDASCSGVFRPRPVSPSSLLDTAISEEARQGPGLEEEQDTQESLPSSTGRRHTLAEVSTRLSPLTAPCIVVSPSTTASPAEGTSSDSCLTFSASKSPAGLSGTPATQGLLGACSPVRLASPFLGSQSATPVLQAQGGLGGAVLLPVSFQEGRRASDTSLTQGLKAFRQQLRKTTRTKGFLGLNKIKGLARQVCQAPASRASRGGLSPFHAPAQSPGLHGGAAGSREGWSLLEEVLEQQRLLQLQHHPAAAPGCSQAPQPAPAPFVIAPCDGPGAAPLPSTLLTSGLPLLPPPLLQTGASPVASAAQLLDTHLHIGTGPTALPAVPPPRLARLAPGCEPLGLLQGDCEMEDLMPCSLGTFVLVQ
Chain of GST-tagged SIK2 (Q9H0K1 whole entry): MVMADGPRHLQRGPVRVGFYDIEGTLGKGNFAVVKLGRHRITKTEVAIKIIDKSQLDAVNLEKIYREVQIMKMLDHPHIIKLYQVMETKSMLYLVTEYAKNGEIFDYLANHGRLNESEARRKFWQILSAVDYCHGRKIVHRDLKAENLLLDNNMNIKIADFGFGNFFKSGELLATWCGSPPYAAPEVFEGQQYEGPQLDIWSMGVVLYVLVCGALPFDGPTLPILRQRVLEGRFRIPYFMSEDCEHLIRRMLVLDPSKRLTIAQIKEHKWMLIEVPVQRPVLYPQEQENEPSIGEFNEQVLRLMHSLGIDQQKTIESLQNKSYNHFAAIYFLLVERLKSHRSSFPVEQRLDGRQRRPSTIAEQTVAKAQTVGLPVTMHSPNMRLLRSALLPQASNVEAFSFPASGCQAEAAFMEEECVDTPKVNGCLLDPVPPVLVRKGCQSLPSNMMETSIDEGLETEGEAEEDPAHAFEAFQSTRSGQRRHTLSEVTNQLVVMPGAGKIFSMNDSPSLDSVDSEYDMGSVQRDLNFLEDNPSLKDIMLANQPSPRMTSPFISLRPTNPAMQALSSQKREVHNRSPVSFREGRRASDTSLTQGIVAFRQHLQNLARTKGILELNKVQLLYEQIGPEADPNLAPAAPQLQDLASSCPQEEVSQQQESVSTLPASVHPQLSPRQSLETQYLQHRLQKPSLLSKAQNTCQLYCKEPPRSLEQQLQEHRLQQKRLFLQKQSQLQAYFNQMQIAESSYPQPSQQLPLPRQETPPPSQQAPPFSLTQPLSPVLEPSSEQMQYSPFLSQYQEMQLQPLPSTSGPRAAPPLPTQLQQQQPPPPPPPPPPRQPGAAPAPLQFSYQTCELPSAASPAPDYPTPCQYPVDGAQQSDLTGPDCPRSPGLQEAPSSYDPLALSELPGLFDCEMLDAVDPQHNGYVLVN
Chain of GST-tagged SIK3 (Q9Y2K2 whole entry): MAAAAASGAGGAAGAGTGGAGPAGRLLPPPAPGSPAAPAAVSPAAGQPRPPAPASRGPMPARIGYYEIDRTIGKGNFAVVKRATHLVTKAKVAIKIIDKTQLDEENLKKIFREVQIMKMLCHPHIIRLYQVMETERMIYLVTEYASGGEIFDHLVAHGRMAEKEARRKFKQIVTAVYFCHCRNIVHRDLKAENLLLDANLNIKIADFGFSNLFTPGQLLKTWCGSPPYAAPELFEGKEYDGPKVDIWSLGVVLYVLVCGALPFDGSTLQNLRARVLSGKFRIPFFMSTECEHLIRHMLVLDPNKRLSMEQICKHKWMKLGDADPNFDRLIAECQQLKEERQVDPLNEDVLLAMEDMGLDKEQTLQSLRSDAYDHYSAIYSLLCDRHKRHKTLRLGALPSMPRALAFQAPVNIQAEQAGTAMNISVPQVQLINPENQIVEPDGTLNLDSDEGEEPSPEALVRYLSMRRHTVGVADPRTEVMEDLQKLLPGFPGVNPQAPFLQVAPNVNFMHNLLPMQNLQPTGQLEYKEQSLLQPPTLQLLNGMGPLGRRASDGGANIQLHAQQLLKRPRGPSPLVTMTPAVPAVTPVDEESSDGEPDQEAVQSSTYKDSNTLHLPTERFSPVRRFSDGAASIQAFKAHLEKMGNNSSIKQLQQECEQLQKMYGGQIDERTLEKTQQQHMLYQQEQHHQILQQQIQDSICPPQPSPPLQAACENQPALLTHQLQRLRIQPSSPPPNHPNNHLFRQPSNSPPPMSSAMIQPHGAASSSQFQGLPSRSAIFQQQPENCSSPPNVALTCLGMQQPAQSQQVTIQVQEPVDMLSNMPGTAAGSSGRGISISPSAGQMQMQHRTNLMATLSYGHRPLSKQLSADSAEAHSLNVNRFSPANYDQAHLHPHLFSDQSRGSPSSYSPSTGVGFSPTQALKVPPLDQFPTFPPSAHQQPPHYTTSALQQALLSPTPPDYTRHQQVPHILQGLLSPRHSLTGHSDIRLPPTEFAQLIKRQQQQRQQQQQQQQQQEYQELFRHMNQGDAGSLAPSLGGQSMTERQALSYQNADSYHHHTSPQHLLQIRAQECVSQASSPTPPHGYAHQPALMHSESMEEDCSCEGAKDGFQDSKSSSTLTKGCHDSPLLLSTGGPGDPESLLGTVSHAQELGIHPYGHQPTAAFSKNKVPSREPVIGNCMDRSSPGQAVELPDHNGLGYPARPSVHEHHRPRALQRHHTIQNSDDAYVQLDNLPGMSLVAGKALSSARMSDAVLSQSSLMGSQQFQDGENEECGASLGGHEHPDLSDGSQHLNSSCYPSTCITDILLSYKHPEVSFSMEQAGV

Regarding `CCCn1cc(-c2cc(C#N)c3c(-c4cc(OC)c5c(c4)[C@@H](C)CNC5=O)n(C)nc3c2)cn1` (single isomer, unassigned) [Example 106], the IC50 against GST-tagged SIK2 was found to be 3.1 nM; at GST-tagged SIK3 it was 6.8 nM; at GST-tagged SIK1 it was 8 nM; in test [2] it was 19 nM. The “TNF α increase inhibition ratio” value in test [1] was 47.2** %.

Turning to `COc1cc(-c2c3c(C#N)cc(-c4cnn(C)c4)cc3nn2C)cc2c1C(=O)NCC2C` (centres unmarked) [Example 77, 3-(8-methoxy-4-methyl-1-oxo-3,4-dihydro-2H-isoquinolin-6-yl)-2-methyl-6-(1-methylpyrazol-4-yl)indazol-4-carbonitrile], the IC50 against GST-tagged SIK2 amounted to 5.2 nM; on GST-tagged SIK3, 10.1 nM; on GST-tagged SIK1, 11.8 nM.

As to `COc1cc(-c2c3c(C#N)cc(-c4cnn(C)c4)cc3nn2C)cc(OC(F)F)c1C(=O)N1CC(C#N)(C(F)F)C1` [Example 39, 3-[4-[3-cyano-3-(difluoromethyl)azetidin-1-carbonyl]-3-(difluoromethoxy)-5-methoxyphenyl]-2-methyl-6-(1-methylpyrazol-4-yl)indazole-4-carbonitrile], the IC50 is 18.2 nM on GST-tagged SIK2, 9.4 nM at GST-tagged SIK3 and 16.2 nM against GST-tagged SIK1.

`COc1cc(-c2c3c(OC)cc(-c4cnn(C)c4)cc3nn2C)cc(OC(F)F)c1C(=O)N[C@@H]1C[C@@H]1F` [Example 2, 2-(difluoromethoxy)-N-[(1R,2S)-2-fluorocyclopropyl]-6-methoxy-4-[4-methoxy-2-methyl-6-(1-methylpyrazol-4-yl)indazol-3-yl]benzamide]: the IC50 turned out to be 8.3 nM against GST-tagged SIK2, 7.8 nM on GST-tagged SIK3 and 19.8 nM on GST-tagged SIK1.

`COc1cc(-c2c3c(C(F)F)cc(-c4cnn([C@@H]5CCOC5)c4)cc3nn2C)cc(OC(F)F)c1C(N)=O` [Example 159, 2-(difluoromethoxy)-4-[4-(difluoromethyl)-2-methyl-6-[1-[(3R)-oxolan-3-yl]pyrazol-4-yl]indazol-3-yl]-6-methoxybenzamide]: the IC50 against GST-tagged SIK2 was 2.8 nM; against GST-tagged SIK3 it was 4.6 nM; at GST-tagged SIK1, 13.8 nM.

Take `COCCn1cc(-c2cc(OC)c3c(-c4cc(OC(F)F)c5c(c4)[C@@H](C)CNC5=O)n(C)nc3c2)cn1` (single isomer, unassigned) [Example 178]: the IC50 is 4.7 nM against GST-tagged SIK2, 15.6 nM against GST-tagged SIK3 and 10.1 nM at GST-tagged SIK1.
